According to ChEMBL document CHEMBL3244013, “Central nervous system activity of a novel class of annelated 1,4-benzodiazepines, aminomethylene-2,4-dihydro-1H-imidazo[1,2-a][1,4]benzodiazepin-1-ones” (J Med Chem, 1977):

Tests used:
Mus musculus [1] = experiment: Antianxiety activity in po dosed CD-1 mouse assessed as inhibition of foot shock-induced aggression after 30 mins relative to control; assay type: functional; conditions: CD-1, po, 0.5 h
Mus musculus [2] = experiment: Anticonvulsant activity in po dosed CD-1 mouse assessed as protection against maximal electroshock-induced convulsion; assay type: functional; conditions: CD-1, po
Mus musculus [3] = experiment: Anticonvulsant activity in po dosed CD-1 mouse assessed as protection against pentylenetetrazole-induced convulsion; assay type: functional; conditions: CD-1, po
Mus musculus [4] = experiment: Anticonvulsant activity in po dosed CD-1 mouse assessed as protection against strychnine-induced convulsion after 30 mins; assay type: functional; conditions: CD-1, po, 0.5 h
Mus musculus [5] = experiment: Potentiation of hexobarbital-induced sedative effect in po dosed CD-1 mouse assessed as loss of righting reflex after 30 secs; assay type: functional; conditions: CD-1, po
Mus musculus [6] = experiment: Potentiation of chlorprothixene-induced sedative effect in po dosed CD-1 mouse assessed as loss of righting reflex; assay type: functional; conditions: CD-1, po
Mus musculus [7] = experiment: Induction of muscle relaxation in po dosed CD-1 mouse after 30 mins by rotary drum test; assay type: functional; conditions: CD-1, po, 0.5 h
Mus musculus [8] = experiment: Acute toxicity in po dosed CD-1 mouse assessed as mortality after 24 hrs; assay type: organism-based; conditions: in vivo

**Q.** Which results are given for `CCN1CCN(/C=C2\N=C3CN=C(c4ccccc4Cl)c4cc([N+](=O)[O-])ccc4N3C2=O)CC1`?
**A.** ED50 (Mus musculus [1]): 0.34 mg/kg; ED50 (Mus musculus [2]): 2.8 mg/kg; ED50 (Mus musculus [3]): 0.15 mg/kg; ED50 (Mus musculus [4]): 2.8 mg/kg; ED50 (Mus musculus [5]): 0.8 mg/kg; ED50 (Mus musculus [6]): 0.99 mg/kg; ED50 (Mus musculus [7]): 0.46 mg/kg; ED50 (Mus musculus [8]): > 1000 mg/kg

**Q.** With `CCN1CCN(/C=C2\N=C3CN=C(c4ccccc4F)c4cc([N+](=O)[O-])ccc4N3C2=O)CC1` as the compound, how does the ED50 (Mus musculus [1]) read?
**A.** 0.64 mg/kg

**Q.** What about the ED50 (Mus musculus [2]) of the same compound?
**A.** 2.6 mg/kg

**Q.** And the ED50 (Mus musculus [3])?
**A.** 0.18 mg/kg

**Q.** What about the ED50 (Mus musculus [4]) of the same compound?
**A.** 3.75 mg/kg

**Q.** What about the ED50 (Mus musculus [5]) of the same compound?
**A.** 0.72 mg/kg

**Q.** What about the ED50 (Mus musculus [6]) of the same compound?
**A.** 4 mg/kg

**Q.** And the ED50 (Mus musculus [7])?
**A.** 0.37 mg/kg

**Q.** And the ED50 (Mus musculus [8])?
**A.** > 1000 mg/kg

**Q.** `C/C(=C1/N=C2CN=C(c3ccccc3)c3cc(Cl)ccc3N2C1=O)N1CCNCC1` was tested. Which ED50 (Mus musculus [1]) did it give?
**A.** > 20 mg/kg

**Q.** What about the ED50 (Mus musculus [2]) of the same compound?
**A.** 14 mg/kg

**Q.** And the ED50 (Mus musculus [3])?
**A.** 4 mg/kg

**Q.** And the ED50 (Mus musculus [4])?
**A.** > 50 mg/kg

**Q.** And the ED50 (Mus musculus [5])?
**A.** 5.2 mg/kg

**Q.** What about the ED50 (Mus musculus [6]) of the same compound?
**A.** > 50 mg/kg

**Q.** What about the ED50 (Mus musculus [7]) of the same compound?
**A.** > 50 mg/kg

**Q.** And the ED50 (Mus musculus [8])?
**A.** > 1000 mg/kg

**Q.** Which ED50 (Mus musculus [1]) does the source give for `CN1CCN(/C=C2\N=C3CN=C(c4ccccc4Cl)c4cc([N+](=O)[O-])ccc4N3C2=O)CC1` [LOPRAZOLAM] here?
**A.** 0.42 mg/kg

**Q.** And the ED50 (Mus musculus [2])?
**A.** 0.76 mg/kg

**Q.** What about the ED50 (Mus musculus [3]) of the same compound?
**A.** 0.028 mg/kg

**Q.** What about the ED50 (Mus musculus [4]) of the same compound?
**A.** 0.41 mg/kg

**Q.** And the ED50 (Mus musculus [5])?
**A.** 1 mg/kg

**Q.** What about the ED50 (Mus musculus [6]) of the same compound?
**A.** 1.1 mg/kg

**Q.** And the ED50 (Mus musculus [7])?
**A.** 2.2 mg/kg

**Q.** What about the ED50 (Mus musculus [8]) of the same compound?
**A.** > 1000 mg/kg
